Results taken from patent publication US10899910B2, “Quaternary cationic polymers” (ECOLAB USA, INC., priority 2016, dated 2021).

Columns and labels:
[1] = test system: collection of aerobic bacteria from 30 water samples in cooling towers across North America; test: Biofilm reduction (biofilm inhibition test, stain absorbance at 590 nm); type: cell-based; conditions: for (Comp. - Single Quat 2)*100 / Single Quat 2: biofilm reduction relative to Single Quat 2
Experimental: Biofilm reduction experiments were conducted to test the efficacy of multi-quaternary cationic polymers compared to single quaternary compounds. Two different compositions were prepared containing single quaternary compounds: a composition (Single Quat 1) comprising about 50% by weight bisoctyl dimethyl ammonium chloride (CAS #5538-94-3) and about 5-10% by weight glycerin; and a composition (Single Quat 2) comprising about 50% by weight didecyl-dimethyl ammonium chloride (CAS #7173-51-5) and about 10-30% by weight ethanol. The test bacteria comprised a collection of aerobic bacteria from 30 water samples in cooling towers across North America. Different concentrations of cationic polymer salts and single quaternary compounds were tested ranging from about 0.8 ppm to about 1000 ppm. Using the biofilm inhibition test protocols, the absorbed stains were extracted and absorbance was measured at 590 nm. The biofilm reduction was calculated by comparing the absorbance of treated vs untreated controls, then averaged over six replicates.

[2] = Surface tension measurement (Tracker tensiometer); type: physicochemical; conditions: room temperature
Experimental: Surface tension measurements were conducted on a Tracker tensiometer (Teclis Instruments) at room temperature. Various concentrations of surfactant solutions were prepared and measurements were conducted.
The surface tension as a function of concentration of the cationic surfactant samples were measured and are listed in Table 2, where NT means not tested.

[3] = Corrosion bubble cell test (Linear Polarization Resistance); conditions: 2 ppm with 1% 2ME synergist; CO2-saturated brine/hydrocarbon, 80° C.; three hours baseline (Tables 8, 9)
Experimental: (§1) Cationic polymer salts were evaluated for corrosion performance as compared to a C12-C18 alkyl dimethyl benzyl ammonium chloride via a bubble test procedure. The bubble test simulates low flow areas where little or no mixing of water and oil occurs. The test was conducted using brine (80% of the brine being 3% sodium chloride brine and 20% of the brine being a hydrocarbon containing 75% LVT-200 kerosene oil and 25% xylene). The brine was placed into kettles and purged with carbon dioxide. The brine was continually purged with carbon dioxide to saturate the brine prior to starting the test. After the test began, the test cell was blanketed with carbon dioxide one hour prior to electrode insertion and through the duration of the test to maintain saturation. The kettles were stirred at 150 revolutions per minute (rpm) for the duration of the test to maintain thermal equilibrium at 80° C. The corrosion rate was measured by Linear Polarization Resistance (LPR) techniques. The working electrode used was carbon steel. The counter and reference electrodes were both 1018 carbon steel. The electrodes were all cleaned and polished prior to testing. Data were collected for three hours before 20 ppm of each of the compositions (containing 2 ppm of each of various pentaquaternary cationic polymer salts or the comparative C12-C18 alkyl dimethyl benzyl ammonium chloride and 1% 2-mercaptoethanol (2ME) as synergist in an organic solvent) was dosed into its respective cell. Data were collected overnight. A low concentration of the compositions was used to differentiate between the compositions.
Corrosion bubble cell tests were performed according to the method of Example A1 to evaluate a hexaquaternary cationic polymer salt for corrosion performance as compared to a C12-C18 alkyl dimethyl benzyl ammonium chloride. Data were collected for three hours before 20 ppm of each of the compositions (containing 2 ppm of a hexaquaternary cationic polymer salt or the comparative C12-C18 alkyl dimethyl benzyl ammonium chloride and 1% 2ME as synergist in an organic solvent) was dosed into its respective cell. Data were collected overnight. A low concentration of the compositions was used to differentiate between the compositions.
as §1, with “six” for “three”, “polyethyleneimine-based” for “pentaquaternary”, “cell. However, for the comparative composition, data was only collected three hours before addition of the compositions.” for “cell.”

[4] = test system: mixture of aerobic populations from more than 30 cooling systems in North America; test: Non-oxidative antimicrobial efficiency test in cooling water (ASTM E645-02a); type: cell-based, bacteria (specific species not identified); conditions: at the tested concentrations
Experimental: Antimicrobial efficiency of the synthesized compounds was tested using a non-oxidative antimicrobial efficiency test procedure according to ASTM method for microbiocide efficiency in cooling water (E645-02a, 2005). The bacteria used in the efficacy testing comprised a mixture of aerobic populations from more than 30 cooling systems in North America. The specific species were not identified. Those species were grown on R2A agar.
In one experiment, various concentrations (0 ppm, 5 ppm, 10 ppm, 20 ppm, 30 ppm, 40 ppm, and 50 ppm) of Compound 1 were applied to bacteria in water. The log 10 concentration in colony forming units (CFU/ml) was measured at four time points (0 min, 60 min, 240 min, and 1440 min).
The microbial activity of Compounds 1-4 at a concentration of 50 ppm was tested according to the same procedure described above.
The antimicrobial activity of Compound 4 was tested using the same procedures as described above.

[5] = test system: bacterial spores or thermophiles; test: Anti-spore and anti-thermophile activity; type: cell-based; conditions: about 20 ppm; for Log Reduction: vs control
Experimental: The effect of the compounds on bacterial spores or thermophiles was also tested. Compounds 1 and 4 were incubated separately with spores or thermophiles at a concentration of about 20 ppm, and the reduction in concentration was measured at four time points (See Table 3).

For CCCCCCCCCCCCCCCCCC[N+](C)(C)CC(O)CN(CCN(CCN(CC(O)C[N+](C)(C)C)CC(O)C[N+](C)(C)CCCCCCCCCCCCCCCCCC)CC(O)C[N+](C)(C)C)CC(O)C[N+](C)(C)C.[Cl-].[Cl-].[Cl-].[Cl-].[Cl-] (centres unmarked) [Compound 9], the Biofilm reduction ([1]; active conc. 0.8 ppm) was 20.5%, the “(Comp. - Single Quat 2)*100 / Single Quat 2” value ([1]; active conc. 0.8 ppm) was 314.7% and the Biofilm reduction ([1]; active conc. 1.6 ppm) was 35.9%. The “(Comp. - Single Quat 2)*100 / Single Quat 2” value ([1]; active conc. 1.6 ppm) was −9.6%, the Biofilm reduction ([1]; active conc. 3.0 ppm) was 41.2% and the “(Comp. - Single Quat 2)*100 / Single Quat 2” value ([1]; active conc. 3.0 ppm) was −43.2%. For the same compound, the Biofilm reduction ([1]; active conc. 6.0 ppm) was 45.4%, the “(Comp. - Single Quat 2)*100 / Single Quat 2” value ([1]; active conc. 6.0 ppm) was −11.1% and the Biofilm reduction ([1]; active conc. 8.0 ppm) was 62.6%. For the same compound, the “(Comp. - Single Quat 2)*100 / Single Quat 2” value ([1]; active conc. 8.0 ppm) was −8.6%, the Biofilm reduction ([1]; active conc. 12.0 ppm) was 70.9% and the “(Comp. - Single Quat 2)*100 / Single Quat 2” value ([1]; active conc. 12.0 ppm) was −13.2%. The Biofilm reduction ([1]; active conc. 16.0 ppm) was 79.0%, the “(Comp. - Single Quat 2)*100 / Single Quat 2” value ([1]; active conc. 16.0 ppm) was −15.5% and the Biofilm reduction ([1]; active conc. 25.0 ppm) was 76.8%. For the same compound, the “(Comp. - Single Quat 2)*100 / Single Quat 2” value ([1]; active conc. 25.0 ppm) was −15.9%, the Biofilm reduction ([1]; active conc. 31.0 ppm) was 46.9% and the “(Comp. - Single Quat 2)*100 / Single Quat 2” value ([1]; active conc. 31.0 ppm) was −50.8%. For the same compound, the Biofilm reduction ([1]; active conc. 50.0 ppm) was 77.6%, the “(Comp. - Single Quat 2)*100 / Single Quat 2” value ([1]; active conc. 50.0 ppm) was −15.9% and the Biofilm reduction ([1]; active conc. 62.0 ppm) was 90.7%. For the same compound, the “(Comp. - Single Quat 2)*100 / Single Quat 2” value ([1]; active conc. 62.0 ppm) was −0.4%, the Biofilm reduction ([1]; active conc. 100.0 ppm) was 97.3% and the “(Comp. - Single Quat 2)*100 / Single Quat 2” value ([1]; active conc. 100.0 ppm) was 41.9%. The Biofilm reduction ([1]; active conc. 125.0 ppm) was 98.9%, the “(Comp. - Single Quat 2)*100 / Single Quat 2” value ([1]; active conc. 125.0 ppm) was 88.6% and the Biofilm reduction ([1]; active conc. 250.0 ppm) was 99.5%. For the same compound, the “(Comp. - Single Quat 2)*100 / Single Quat 2” value ([1]; active conc. 250.0 ppm) was 55.3%, the Biofilm reduction ([1]; active conc. 500.0 ppm) was 99.6% and the “(Comp. - Single Quat 2)*100 / Single Quat 2” value ([1]; active conc. 500.0 ppm) was 23.7%. The Biofilm reduction ([1]; active conc. 1000.0 ppm) was 99.6%, the “(Comp. - Single Quat 2)*100 / Single Quat 2” value ([1]; active conc. 1000.0 ppm) was 33.5% and the “reduction in biofilm formation” value ([1]; at concentrations about 100 ppm) was “greater than 95%”. The Surface tension ([2]; concentration 0.010 %) was 73.11 mN/m, the Surface tension ([2]; concentration 0.025 %) was 69.16 mN/m and the Surface tension ([2]; concentration 0.050 %) was 60.77 mN/m. For the same compound, the Surface tension ([2]; concentration 0.100 %) was 54.69 mN/m, the Surface tension ([2]; concentration 0.200 %) was 52.05 mN/m and the Surface tension ([2]; concentration 0.500 %) was 50.09 mN/m. The Surface tension ([2]; concentration 1.000 %) was 49.38 mN/m and the “% Protection” value [3] was 60%.

For CCCCCCCCCCCCCCCCCC[N+](C)(C)CC(O)CN(CCN(CC(O)C[N+](C)(C)C)CC(O)C[N+](C)(C)CCCCCCCCCCCCCCCCCC)CCN(CC(O)C[N+](C)(C)C)CC(O)C[N+](C)(C)CCCCCCCCCCCCCCCCCC.[Cl-].[Cl-].[Cl-].[Cl-].[Cl-] (centres unmarked) [Compound 4], the antimicrobial activity [4] was “significant antimicrobial activity”, the Log cfu/ml ([5]; contact time 0 min) was 2.53 Log cfu/ml and the “Log Reduction” value ([5]; contact time 0 min) was −0.04. For the same compound, the Log cfu/ml ([5]; contact time 60 min) was 1.6 Log cfu/ml, the “Log Reduction” value ([5]; contact time 60 min) was 0.74 and the Log cfu/ml ([5]; contact time 240 min) was 0.00 Log cfu/ml. The “Log Reduction” value ([5]; contact time 240 min) was 2.48, the Log cfu/ml ([5]; contact time 1440 min) was 1.78 Log cfu/ml and the “Log Reduction” value ([5]; contact time 1440 min) was 0.75.
